Laboratory results reported in patent US4112228A, “7-(D-α-Hydroxy-2-arylacetamido)-3-(2-carboxyalkyl-2,3-dihydro-s-tri azolo-[4,3-b]pyridazin-3-on-6-ylthiomethyl)-3-cephem-4-carboxylic acids and derivatives” (priority 1977, dated 1978).
Converted amounts (≈) assume the structure as drawn. Like-named read-outs stand apart in the source and are kept apart here.

Experiments:
[1] = tested on: S. aureus; test: MIC by Steers' agar dilution method; type: cell-based; details: Staphylococcus aureus
[2] = tested on: S. paratyphi; test: MIC by Steers' agar dilution method; details: Salmonella enterica
[3] = tested on: Ps. aeruginosa; test: MIC by Steers' agar dilution method; details: Pseudomonas aeruginosa
[4] = tested on: S. pyogenes; test: MIC by Steers' agar dilution method
[5] = Blood levels in mice after subcutaneous administration; type: in vivo; details: mouse, read-out: Blood level; for concentration at 0.25 h: 15'; for concentration at 0.5 h: 30'; for concentration at 1 h: 60'; for concentration at 2 h: 120'
Description: Groups of mice were administered subcutaneously graded doses of 40, 20 and 10 mg./kg..

[6] = tested on: E. cloacae A20464 (El-19); test: Standard experimental infection in mice; type: in vivo; details: Run C-811
[7] = tested on: Shig. dysenteriae; test: MIC by Steers' agar dilution method; details: Shigella dysenteriae, MHA
[8] = tested on: S. aureus Smith; test: Standard experimental infection in mice; type: in vivo; details: Table 6

## Cn1nnnc1SCC1=C(C(=O)O)N2C(=O)[C@@H](NC(=O)[C@H](O)c3ccccc3)[C@H]2SC1 [Cefamandole, cefamandole, reference compound]
[1]; Sa-40 A9601, MHA, Table 2
  MIC: 0.4 µg/mL (≈ 0.865 µM)
[1]; Sa-41 A9602, MHA, Table 2
  MIC: 0.2 µg/mL (≈ 0.432 µM)
[1]; Sa-44 A15097, HIA, Table 4
  MIC: 3.1 µg/mL (≈ 6.7 µM)
[1]; Sa-44 A15097, MHA, Table 2
  MIC: 25 µg/mL (≈ 54.1 µM)
[1]; Sa-44 A15097, MHA, Table 4
  MIC: 3.1 µg/mL (≈ 6.7 µM)
[1]; Sa-44 A15097, NA, Table 4
  MIC: 6.3 µg/mL (≈ 13.6 µM)
[1]; Sa-56 A9630, MHA, Table 2
  MIC: 0.8 µg/mL (≈ 1.73 µM)
[1]; Sa-57 A9748, MHA, Table 2
  MIC: 3.1 µg/mL (≈ 6.7 µM)
[1]; Sa-58 A15033, MHA, Table 2
  MIC: 1.6 µg/mL (≈ 3.46 µM)
[1]; Sa-59 A15096, MHA, Table 2
  MIC: 6.3 µg/mL (≈ 13.6 µM)
[1]; Sa-60 A20604, MHA, Table 2
  MIC: 3.1 µg/mL (≈ 6.7 µM)
[1]; Sa-61 A20605, MHA, Table 2
  MIC: 6.3 µg/mL (≈ 13.6 µM)
[1]; Sa-62 A20606, MHA, Table 2
  MIC: 0.8 µg/mL (≈ 1.73 µM)
[1]; Sa-63 A20607, MHA, Table 2
  MIC: 12.5 µg/mL (≈ 27 µM)
[1]; Sa-64 A20608, MHA, Table 2
  MIC: 6.3 µg/mL (≈ 13.6 µM)
[1]; Sa-65 A20609, MHA, Table 2
  MIC: 6.3 µg/mL (≈ 13.6 µM)
[1]; Sa-66 A20610, MHA, Table 2
  MIC: 6.3 µg/mL (≈ 13.6 µM)
[1]; Sa-67 A20611, MHA, Table 2
  MIC: 6.3 µg/mL (≈ 13.6 µM)
[1]; Sa-68 A20612, MHA, Table 2
  MIC: 0.4 µg/mL (≈ 0.865 µM)
[1]; Sa-69 A20613, MHA, Table 2
  MIC: 6.3 µg/mL (≈ 13.6 µM)
[1]; Smith A9537, MHA, Table 1
  MIC: 0.05 µg/mL (≈ 0.108 µM)
[1]; Smith, MHA, Example 10
  MIC: 0.2 µg/mL (≈ 0.432 µM)
[1]; strain not named, MHA, Example 10
  MIC: 0.1 µg/mL (≈ 0.216 µM)
[2]
  MIC: 0.2 µg/mL (≈ 0.432 µM)
[3]; A9843, MHA, Table 1
  MIC: > 100 µg/mL
[3]; A9930, MHA, Table 1
  MIC: > 100 µg/mL
[3]; Pa-3 A9930, HIA, Table 4
  MIC: > 100 µg/mL
[3]; Pa-3 A9930, MHA, Table 4
  MIC: > 100 µg/mL
[3]; Pa-3 A9930, NA, Table 4
  MIC: > 100 µg/mL
[3]; strain not given (1st of 2), MHA, Example 10
  MIC: > 100 µg/mL
[3]; strain not named (2nd of 2), MHA, Example 10
  MIC: > 100 µg/mL
[4]
  MIC: 0.1 µg/mL (≈ 0.216 µM)
[4]; Sp-2 Dick, MHA, Table 2
  MIC: 0.1 µg/mL (≈ 0.216 µM)
[4]; Sp-3 A9604, MHA, Table 2
  MIC: 0.1 µg/mL (≈ 0.216 µM)
[4]; Sp-5 A15040, MHA, Table 2
  MIC: 0.1 µg/mL (≈ 0.216 µM)
[4]; Sp-6 A20066, MHA, Table 2
  MIC: 0.1 µg/mL (≈ 0.216 µM)
[4]; Sp-7 Dig 7, MHA, Table 2
  MIC: 0.1 µg/mL (≈ 0.216 µM)
[4]; Sp-8 A15041, MHA, Table 2
  MIC: 0.1 µg/mL (≈ 0.216 µM)
[4]; Sp-9 A20201, MHA, Table 2
  MIC: 0.1 µg/mL (≈ 0.216 µM)
[4]; Sp-10 A20202, MHA, Table 2
  MIC: 0.1 µg/mL (≈ 0.216 µM)
[4]; Streptococcus pyogenes
  MIC: 0.1 µg/mL (≈ 0.216 µM)
[5]; sc 10 mg./kg.
  concentration at 0.25 h: 3800 ng/mL
  concentration at 0.5 h: 1500 ng/mL
  concentration at 1 h: 300 ng/mL
  concentration at 2 h: 100 ng/mL
[5]; sc 20 mg./kg.
  concentration at 0.25 h: 9500 ng/mL
  concentration at 0.5 h: 4100 ng/mL
  concentration at 1 h: 1000 ng/mL
  concentration at 2 h: < 100 ng/mL
[5]; sc 40 mg./kg.
  concentration at 0.25 h: 18000 ng/mL
  concentration at 0.5 h: 11000 ng/mL
  concentration at 1 h: 3900 ng/mL
  concentration at 2 h: 300 ng/mL
[6]; Enterobacter cloacae, read-out: PD50
  ED50: 0.8 mg/kg
[6]; 0.4 mg./kg.
  No. of survivors/No. tested: 1/5
[6]; 1.6 mg./kg.
  No. of survivors/No. tested: 4/5
[6]; 6.3 mg./kg.
  No. of survivors/No. tested: 5/5
[6]; 100 mg./kg.
  No. of survivors/No. tested: 5/5
[7]; Example 10
  MIC: 0.1 µg/mL (≈ 0.216 µM)
[7]; Table 1
  MIC: 0.1 µg/mL (≈ 0.216 µM)
[7]; Sd-1, Table 3
  MIC: 0.2 µg/mL (≈ 0.432 µM)
[8]; 0.4 mg./kg.
  No. of survivors/No. tested: 1/5
[8]; 1.6 mg./kg.
  No. of survivors/No. tested: 5/5
[8]; 6.3 mg./kg.
  No. of survivors/No. tested: 5/5
[8]; 25 mg./kg.
  No. of survivors/No. tested: 5/5
[8]; Staphylococcus aureus, read-out: PD50
  ED50: 0.6 mg/kg
